Tests used:
LNCap tumor = details: mouse, in vivo
Description: Ex vivo tumor uptake expressed as percentage injected activitiy per gram of tissue (% lAg) (mean±/−SEM, n=3/group) in LNCap tumor bearing NSG mice following injection of either monomeric [^64Cu]Cu-SarPSMA (2 MBq, 0.9 nmol of peptide) or dimeric [^64Cu]Cu-Sar-bisPSMA (2 MBq, 0.2 nmol of peptide).

PSMA receptor = target: T1, PSMA receptor (Homo sapiens, UniProt Q04609); assay: Same-day (Day 0) versus next-day (Day 1) PET imaging of patients; format: in vivo; details: ^18F-labelled ligand as SOC
T1 construct: localises at sites that overexpress the PSMA receptor and are indicative of a cancer; from tissue; host or cells: Primary prostate cancer and metastatic lesions (lymph node, bone, prostatic bed) in living patients
T1 sequence (Q04609 whole entry): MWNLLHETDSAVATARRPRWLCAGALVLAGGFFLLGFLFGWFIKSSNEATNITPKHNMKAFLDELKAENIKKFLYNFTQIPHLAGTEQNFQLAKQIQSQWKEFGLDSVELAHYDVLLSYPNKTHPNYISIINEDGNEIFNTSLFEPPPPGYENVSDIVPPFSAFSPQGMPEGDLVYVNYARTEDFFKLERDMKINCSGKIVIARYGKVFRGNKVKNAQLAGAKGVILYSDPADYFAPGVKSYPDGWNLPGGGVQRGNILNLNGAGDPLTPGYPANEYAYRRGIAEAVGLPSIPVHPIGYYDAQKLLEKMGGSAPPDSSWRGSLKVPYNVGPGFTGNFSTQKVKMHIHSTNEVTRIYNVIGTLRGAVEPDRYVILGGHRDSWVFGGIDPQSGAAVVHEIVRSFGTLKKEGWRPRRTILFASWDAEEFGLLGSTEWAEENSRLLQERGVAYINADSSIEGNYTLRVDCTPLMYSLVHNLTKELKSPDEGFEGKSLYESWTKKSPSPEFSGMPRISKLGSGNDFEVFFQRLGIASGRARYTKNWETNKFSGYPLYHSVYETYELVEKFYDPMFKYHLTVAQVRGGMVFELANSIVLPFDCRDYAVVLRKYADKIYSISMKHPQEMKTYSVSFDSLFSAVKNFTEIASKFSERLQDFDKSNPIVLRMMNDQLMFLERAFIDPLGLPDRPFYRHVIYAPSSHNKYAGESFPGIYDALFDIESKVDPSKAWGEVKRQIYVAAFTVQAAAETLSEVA

Row | Screening result on SOC PET/CT (FIG. 9A) (PSMA receptor) | SMILES | Uptake and retention at tumors, dimer versus monomer (FIG. 1) (LNCap tumor)
1 |  | CC12CNCCNCC(NC(=O)CCCC(=O)N[C@H](Cc3ccccc3)C(=O)N[C@H](Cc3ccccc3)C(=O)NCCCCCCCC(=O)NCCCC[C@H](NC(=O)N[C@@H](CCC(=O)O)C(=O)O)C(=O)O)(CNCCNC1)CNCCNC2 [^64Cu-SarPSMA, metal not drawn] | less uptake and retention
2 | negative/equivocal | O=C(O)CC[C@H](NC(=O)N[C@@H](CCCCNC(=O)c1ccc([18F])nc1)C(=O)O)C(=O)O [^18F-DCFPyL, DCFPyL, reference compound] | 
